In ChEMBL document CHEMBL1201862, “PubChem BioAssay data set” (2004):
The source made the active and inactive calls.

Assays:
INS1 = assay: INS-1E survival protection against cytokine death – cell-based, luminescence, retest, dose response (AID 449756); assay type: functional; conditions: Rattus norvegicus;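 note: cell death triggered by IL-1 beta plus TNF-alpha plus IFN-gamma mixture; protective hits raise ATP signal compared with cytokine alone wells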
[1] = target: T1, COUP transcription factor 2 (Homo sapiens, UniProt P24468); assay: Luminescence-based cell-based high throughput dose response assay to identify inhibitors of COUP-TFII (NR2F2).; assay type: functional;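 note: HEK293 cells transiently cotransfected with COUP-TFII expression vector and reporter; luciferase reporter luminescence driven by COUP-TFII from the pX2-168 reporter plasmid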
T1 sequence (P24468 whole entry): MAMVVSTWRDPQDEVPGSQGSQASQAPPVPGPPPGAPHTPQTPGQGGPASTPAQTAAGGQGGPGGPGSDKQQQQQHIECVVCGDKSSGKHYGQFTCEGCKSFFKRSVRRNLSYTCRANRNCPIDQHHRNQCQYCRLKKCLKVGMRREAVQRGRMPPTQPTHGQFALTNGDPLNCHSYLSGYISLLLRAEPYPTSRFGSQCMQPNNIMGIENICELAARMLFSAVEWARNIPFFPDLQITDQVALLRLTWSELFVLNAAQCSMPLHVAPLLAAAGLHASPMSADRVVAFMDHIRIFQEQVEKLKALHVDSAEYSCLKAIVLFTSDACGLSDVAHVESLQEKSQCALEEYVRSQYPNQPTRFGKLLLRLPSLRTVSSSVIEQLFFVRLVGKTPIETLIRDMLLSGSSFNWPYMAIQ

[2] = viability loss in THP-1 monocytes – THP-1 cells, cytotoxicity control for Vif-APOBEC3G degradation inhibitor project, dose response (AID 1117359); assay type: functional; conditions: THP-1
[3] = target: Glutathione-S-transferase (Schistosoma japonicum, UniProt Q26513); assay: GST-antibody interaction or FRET quenching – biochemical, TR-FRET, artefact control for Vif-APOBEC3G degradation inhibitor project, dose response (AID 1117362); assay type: functional
HEK293 = assay: EBV LMP1 TES2 canonical NF-kB signalling blockers – cell-based, HEK293, luciferase, cherry-pick, dose response (AID 588343); assay type: functional, Homo sapiens; conditions: Homo sapiens, HEK293
Transthyretin = Transthyretin (Homo sapiens, UniProt P02766); assay: Luminescence-based cell-based high throughput dose response assay to identify activators of Transthyretin (TTR) transcription.; assay type: functional
[4] = luciferase reporter signal suppression in cells – H4 neuroglioma cells, luminescence, dose response (AID 1990); assay type: functional, cell-based
[5] = luciferase reporter signal reduction – luminescence, H4-C neuroglioblastoma cells, dose response (AID 2458); assay type: functional, cell-based;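 note: H4 neuroglioblastoma cells stably carrying a luciferase reporter gene fusion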
cells = assay type: functional, cell-based
[6] = Luminescence Cell-Based Dose Response HTS to Identify Inhibitors of 5'UTR Stem-Loop Driven Prion Protein mRNA Translation in H4 Neuroglioblastoma Cells. [Related pubchem assays: 1827 (Project Summary), 1813 (Primary HTS)]; assay type: functional
[7] = alpha-synuclein stem-loop luciferase translation blockers – H4 neuroglioma cells, luminescence, confirmation (AID 1988); assay type: functional, cell-based
[8] = Luminescence-based counterscreen assay for KLF5 inhibitors: dose response cell-based high throughput screening assay to identify cytotoxic compounds using the IEC-6 intestinal epithelial cell line. [Related pubchem assays: 1700 (Primary screen.), 1834 (Confirmation screen.), 1858 (Summary AID.), 1905 (Counterscreen.)]; assay type: functional
[9] = alpha-synuclein stem-loop translation blockers – luminescence, H4 neuroglioblastoma cells, dose confirmation, confirmation (AID 2454); assay type: functional, cell-based;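 note: H4 neuroglioblastoma cells carrying an alpha-synuclein 5'UTR luciferase reporter; potency for inhibition of the luciferase signal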
[10] = HEK-293T cell viability reduction – luminescence, B-cell screen hits, cytotoxicity control for BCR NF-kB inhibitor project, dose response (AID 489021); assay type: functional, cell-based;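 note: HEK-293T cells carrying an NF-kB luciferase reporter; cells exposed to compound for about 14 hours before viability readout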
H4 [11] = assay: inhibitors of control reporter signal in H4 cells – cell-based, plate reader, dry powder samples, counter-screen for prion reporter project, dose response (AID 540255); assay type: functional; conditions: Homo sapiens
H4 [12] = assay: Inhibitors of Prion Protein 5' UTR mRNA Measured in Cell-Based System Using Plate Reader - 2078-01_Inhibitor_Dose_DryPowder_Activity. [Related pubchem assays (depositor defined):AID488894]; assay type: functional; conditions: Homo sapiens
[13] = reduction of Shn3 3'UTR-driven luciferase in osteoblasts – cell-based, Clone20 osteoblasts, firefly luciferase, cherry-picked, dose response (AID 624132); assay type: functional;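 note: firefly luciferase luminescence from reporter carrying the Shn3 3'UTR in osteoblasts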
Paired box protein Pax-8 = Paired box protein Pax-8 (Homo sapiens, UniProt Q06710); assay: PAX8 transcriptional activity inhibition in RMG-I – RMG-I cells, luciferase, cherry-pick, dose response (AID 687027); assay type: functional, cell-based;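 note: luciferase reporter driven by Pax8 target thyroperoxidase promoter measured by SteadyGlo luminescence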
[14] = inhibitors acting on PAX2 in cells – cell-based, plate reader, dry powder samples, selectivity assay for PAX8 inhibitor project, dose response (AID 743048); assay type: functional;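 note: HEK293 cells carrying a WT1 promoter luciferase reporter driven by expressed Pax2; potency is for inhibition of Pax2 driven reporter signal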
[15] = COV362 cell viability loss – plate reader, dry powder, SA12, cytotoxicity control for PAX8 inhibitor project, dose response (AID 743144); assay type: functional, cell-based
[16] = Shn3 3'UTR reporter signal decrease – cell-based, Clone20 osteoblasts, firefly luciferase, cherry-pick, set 2, Schnurri-3 inhibitor project, dose response (AID 720490); assay type: functional;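 note: actives lower the luminescence signal as inhibitors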
[17] = PAX5 cellular inhibition readout – cell-based, plate reader, dry powder samples, selectivity assay for PAX8 inhibitor project, dose response (AID 743047); assay type: functional;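 note: HEK293 cells carrying a Pax5 driven CD19 promoter luciferase reporter; potency of inhibitors that lower reporter luminescence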
[18] = PAX8-dependent cell viability loss – plate reader, dry powder, dose response (AID 743049); assay type: functional, cell-based
[19] = Luminescence-based cell-based high throughput dose response assay to identify activators of the DAF-12 from the parasite S. stercoralis (ssDAF-12).; assay type: functional
[20] = target: T2, Oxysterols receptor LXR-beta (Homo sapiens, UniProt P55055); assay: LXR agonists, Gal4 luciferase reporter, dose response, counter-screen for ssDAF-12 agonist project, cell-based, luminescence, HEK293, S. stercoralis campaign (AID 720737); assay type: functional; conditions: read-out: IC50 (the source's name)
T2 sequence (P55055 whole entry): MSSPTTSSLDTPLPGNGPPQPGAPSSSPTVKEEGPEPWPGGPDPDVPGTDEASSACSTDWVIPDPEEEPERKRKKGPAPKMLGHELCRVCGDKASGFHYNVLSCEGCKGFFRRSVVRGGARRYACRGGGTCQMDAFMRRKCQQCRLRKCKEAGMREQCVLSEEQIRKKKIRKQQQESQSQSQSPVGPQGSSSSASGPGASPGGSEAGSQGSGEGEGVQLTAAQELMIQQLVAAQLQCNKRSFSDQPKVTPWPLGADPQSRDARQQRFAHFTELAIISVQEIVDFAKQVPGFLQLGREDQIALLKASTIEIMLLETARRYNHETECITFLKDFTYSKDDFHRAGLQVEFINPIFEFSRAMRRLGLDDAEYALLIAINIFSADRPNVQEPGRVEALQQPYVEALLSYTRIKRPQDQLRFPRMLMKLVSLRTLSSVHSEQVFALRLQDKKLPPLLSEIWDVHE

[21] = A2780 cell killing – plate reader, dry powder samples, cytotoxicity control, dose response (AID 743046); assay type: functional, cell-based
[22] = OVCAR-3 cell viability loss – plate reader, dry powder samples, PAX8 inhibitor project, dose response (AID 743044); assay type: functional, cell-based
[23] = OVCAR8 cell viability loss – plate reader, dry powder samples, PAX8 project, dose response (AID 743197); assay type: functional, cell-based; conditions: OVCAR-8
[24] = toxicity toward immortalized ovarian surface epithelium – cell-based, plate reader, dry powder samples, cytotoxicity control for PAX8 inhibitor project, dose response (AID 743045); assay type: functional
[25] = general cell-killing toxicity readout – plate reader, dry powder samples, cytotoxicity control for PAX8 inhibitor project, dose response (AID 743021); assay type: functional, cell-based
[26] = T. cruzi growth inhibition in host cells, dose response, cell-based, plate reader, dry powder, set 2 (AID 652275); assay type: functional
[27] = Trypanosoma cruzi replication inhibitors in host cells – cell-based, plate reader, dry powder samples, dose response (AID 651845); assay type: functional
[28] = anti-trypanosomal activity in BESM host cells – imaging, CA-I/72 strain, bovine embryo skeletal muscle, dry powder, dose response (AID 651885); assay type: functional, cell-based

Paired box protein Pax-8, sequence (Q06710 whole entry): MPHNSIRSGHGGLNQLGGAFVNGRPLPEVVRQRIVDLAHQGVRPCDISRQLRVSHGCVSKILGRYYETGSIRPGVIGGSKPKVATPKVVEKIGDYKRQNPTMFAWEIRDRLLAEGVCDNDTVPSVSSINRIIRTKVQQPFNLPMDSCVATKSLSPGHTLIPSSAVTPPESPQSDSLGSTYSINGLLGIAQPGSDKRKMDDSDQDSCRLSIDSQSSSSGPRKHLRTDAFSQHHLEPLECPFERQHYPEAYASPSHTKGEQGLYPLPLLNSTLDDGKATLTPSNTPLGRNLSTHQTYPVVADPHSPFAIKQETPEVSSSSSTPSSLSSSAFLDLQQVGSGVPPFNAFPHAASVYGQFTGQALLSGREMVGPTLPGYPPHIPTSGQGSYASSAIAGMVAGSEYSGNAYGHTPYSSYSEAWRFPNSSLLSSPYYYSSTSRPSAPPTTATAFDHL
Glutathione-S-transferase, sequence (Q26513 whole entry): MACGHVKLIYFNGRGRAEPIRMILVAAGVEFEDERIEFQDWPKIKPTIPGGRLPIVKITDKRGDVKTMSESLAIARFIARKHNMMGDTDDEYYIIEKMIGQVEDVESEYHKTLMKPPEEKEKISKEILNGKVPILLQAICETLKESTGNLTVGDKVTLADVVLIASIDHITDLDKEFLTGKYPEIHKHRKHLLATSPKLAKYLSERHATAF

With `Cc1cccc2cc(-c3ccccc3)c(-c3ccccc3)c[n+]12` the AC50 (INS1) was 4.26 µM (active), the IC50 [1] was 8.22 µM (active) and the CC50 [2] was 12.2 µM (active). For the same compound, the IC50 [3] was 18.7 µM (active).

For `COc1ccc2cc3c(N)nn(C(=O)c4ccccc4[N+](=O)[O-])c3nc2c1`, the AC50 (HEK293) was 2.75 µM (active) and the EC50 (Transthyretin) was > 167 µM (inactive).

In the case of `O=C(CN1C(=O)c2ccccc2S1(=O)=O)c1ccc(Cl)cc1Cl`, the EC50 [4] is reported as 0.31 µM (active), the EC50 [5] is reported as 0.595 µM (active) and the EC50 (cells) is reported as 0.794 µM (active). For the same compound, the EC50 [6] was < 0.1 µM (active), the EC50 [7] was < 0.1 µM (active) and the IC50 [8] was > 39.8 µM (not active). For the same compound, the EC50 [9] was 0.774 µM (active), the IC50 [10] was > 80 µM (inactive) and the AC50 (H4 [11]) was 0.456 µM (active). The AC50 (H4 [12]) was 0.168 µM (active), the AC50 [13] was 3.53 µM (active) and the AC50 (Paired box protein Pax-8) was 2.93 µM (active). For the same compound, the AC50 [14] was 1.18 µM (active), the AC50 [15] was 93.5 µM (active) and the AC50 [16] was 5.38 µM (active). For the same compound, the AC50 [17] was 1.37 µM (active) and the AC50 [18] was 88.1 µM (active).

For `O=C(CCN1C(=O)C2C3CCC(C3)C2C1=O)Nc1ccccc1C(F)(F)F` (configuration not stated), the IC50 [19] was > 67.6 µM (inactive) and the EC50 [20] was > 67.6 µM (inactive).

In the case of `Cc1cccc(S(=O)(=O)N2C[C@@H](O)COC[C@@H]3O[C@@H](CC(=O)Nc4ccc(-c5ccccc5)cc4)CC[C@H]32)c1`, the AC50 (Paired box protein Pax-8) is reported as 10.7 µM (active), the AC50 [21] is reported as 23.2 µM (active) and the AC50 [22] is reported as 43.4 µM (active). The AC50 [23] was 53.1 µM (active).

In the case of `COc1ccccc1C#Cc1ccc([C@H]2[C@H](C#N)N(C(=O)C3CCC3)[C@H]2CO)cc1`, the AC50 (Paired box protein Pax-8) is reported as 5.55 µM (active), the AC50 [24] is reported as 56.5 µM (active) and the AC50 [22] is reported as 12.6 µM (active). For the same compound, the AC50 [25] was 32.8 µM (active) and the AC50 [23] was 23.4 µM (active).

With `C[C@@H]1CN(C)C(=O)c2cccc(NC(=O)c3ccncc3)c2O[C@H]1CN(C)Cc1ccc(Oc2ccccc2)cc1` the AC50 [26] was 0.00506 µM (active), the AC50 [27] was 0.0381 µM (active) and the IC50 [28] was 10 µM (inconclusive).
